Assay results published in US20130303509A1, “NAMPT INHIBITORS” (AbbVie Inc., priority 2012, published 2013).

System: PC3 cells
Assay: NAMPT Cell Proliferation Assay
Assay type: cell-based
Details: Homo sapiens, PC-3, 120 h, 5 days incubation, cell viability by Cell Titer Glo
Procedure, shortened: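 Seeded at 500 cells/well in RPMI with 10% heat-inactivated FBS and left to attach overnight at 37° C, 5% CO2. Compounds were added as 10-fold dilutions […] for 5 days, then viability was read by CellTiter-Glo. IC50s came from sigmoidal fits of percent inhibition.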

Going from `O=C(Nc1ccc(S(=O)(=O)C2CCN(C(=O)C3CCCC3)CC2)cc1)C1CN(c2ccnnc2)C1` [Example 617, N-(4-{[1-(cyclopentylcarbonyl)piperidin-4-yl]sulfonyl}phenyl)-1-(pyridazin-4-yl)azetidine-3-carboxamide] to `O=C(Nc1ccc(C2CCN(C(=O)C3CCOC3)CC2)cc1)[C@H]1CCN(c2cccnn2)C1` (stereo partly drawn) [Example 638, (3S)-1-(pyridazin-3-yl)-N-{4-[1-(tetrahydrofuran-3-ylcarbonyl)piperidin-4-yl]phenyl}pyrrolidine-3-carboxamide], the IC50 falls from 1870 nM to 29.9 nM (63-fold).

Going from `CC(C)Cn1cc(-c2ccc(C(=O)N[C@@H]3CCN(c4cnnc(Cl)c4Cl)C3)s2)cn1` [Example 618, N-[(3R)-1-(5,6-dichloropyridazin-4-yl)pyrrolidin-3-yl]-5-[1-(2-methylpropyl)-1H-pyrazol-4-yl]thiophene-2-carboxamide] to `CC(C)Cn1cc(-c2ccc(C(=O)N[C@H]3CCN(c4cnnc(Cl)c4Cl)C3)s2)cn1` [Example 620, N-[(3S)-1-(5,6-dichloropyridazin-4-yl)pyrrolidin-3-yl]-5-[1-(2-methylpropyl)-1H-pyrazol-4-yl]thiophene-2-carboxamide], the IC50 falls from greater than 10000 nM to 2830 nM. The second is the more potent here.

`CC(C)Cn1cc(-c2ccc(C(=O)N[C@@H]3CCN(c4ccc(Cl)nn4)C3)s2)cn1` [Example 619, N-[(3R)-1-(6-chloropyridazin-3-yl)pyrrolidin-3-yl]-5-[1-(2-methylpropyl)-1H-pyrazol-4-yl]thiophene-2-carboxamide] and `CC(C)Cn1cc(-c2ccc(C(=O)N[C@H]3CCN(c4ccc(Cl)nn4)C3)s2)cn1` [Example 621, N-[(3S)-1-(6-chloropyridazin-3-yl)pyrrolidin-3-yl]-5-[1-(2-methylpropyl)-1H-pyrazol-4-yl]thiophene-2-carboxamide] cannot be ordered by IC50: greater than 10000 nM for the first, greater than 10000 nM for the second.

First: CC(C)Cn1cc(-c2cc(C(=O)N[C@@H]3CCN(c4cnnc(Cl)c4Cl)C3)cs2)cn1 [Example 622, N-[(3R)-1-(5,6-dichloropyridazin-4-yl)pyrrolidin-3-yl]-5-[1-(2-methylpropyl)-1H-pyrazol-4-yl]thiophene-3-carboxamide]
Second: CC(C)Cn1cc(-c2cc(C(=O)N[C@H]3CCN(c4ccc(Cl)nn4)C3)cs2)cn1 [Example 629, N-[(3S)-1-(6-chloropyridazin-3-yl)pyrrolidin-3-yl]-5-[1-(2-methylpropyl)-1H-pyrazol-4-yl]thiophene-3-carboxamide]
The IC50 of the first is higher: greater than 10000 nM for the first, 5010 nM for the second. The second is the more potent here.

First: CC(C)Cn1cc(-c2cc(C(=O)N[C@@H]3CCN(c4cccnn4)C3)cs2)cn1 [Example 623, 5-[1-(2-methylpropyl)-1H-pyrazol-4-yl]-N-[(3R)-1-(pyridazin-3-yl)pyrrolidin-3-yl]thiophene-3-carboxamide]
Second: CC(C)Cn1cc(-c2cc(C(=O)N[C@@H]3CCN(c4ccnnc4)C3)cs2)cn1 [Example 624, 5-[1-(2-methylpropyl)-1H-pyrazol-4-yl]-N-[(3R)-1-(pyridazin-4-yl)pyrrolidin-3-yl]thiophene-3-carboxamide]
The IC50 of the first is lower: 6170 nM for the first, greater than 10000 nM for the second. The first is the more potent here.

Compared with `CC(C)(C)C(=O)N1CCC(c2ccc(NC(=O)C3CCN(c4cccnn4)CC3)cc2)CC1` [Example 625, N-{4-[1-(2,2-dimethylpropanoyl)piperidin-4-yl]phenyl}-1-(pyridazin-3-yl)piperidine-4-carboxamide], `O=C(Nc1ccc(C2CCN(C(=O)CCC(F)(F)F)CC2)cc1)C1CCN(c2cccnn2)CC1` [Example 628, 1-(pyridazin-3-yl)-N-{4-[1-(4,4,4-trifluorobutanoyl)piperidin-4-yl]phenyl}piperidine-4-carboxamide] is higher in IC50: 1900 nM for the first, greater than 10000 nM for the second. The first is the more potent here.

Going from `O=C(Nc1ccc(C2CCN(C(=O)c3ccccc3)CC2)cc1)C1CCN(c2cccnn2)CC1` [Example 626, N-[4-(1-benzoylpiperidin-4-yl)phenyl]-1-(pyridazin-3-yl)piperidine-4-carboxamide] to `O=C(Nc1ccc(C2CCN(C(=O)c3ccccc3F)CC2)cc1)C1CCN(c2cccnn2)CC1` [Example 627, N-{4-[1-(2-fluorobenzoyl)piperidin-4-yl]phenyl}-1-(pyridazin-3-yl)piperidine-4-carboxamide], the IC50 falls from 5220 nM to 853 nM (6.1-fold). The second is the more potent here.

`O=C(Nc1ccc(C2CCN(C(=O)c3cncs3)CC2)cc1)[C@H]1CCN(c2cccnn2)C1` [Example 630, (3S)-1-(pyridazin-3-yl)-N-{4-[1-(1,3-thiazol-5-ylcarbonyl)piperidin-4-yl]phenyl}pyrrolidine-3-carboxamide] and `Cc1ccc(C(=O)N2CCC(c3ccc(NC(=O)[C@H]4CCN(c5cccnn5)C4)cc3)CC2)cc1` [Example 631, (3S)-N-{4-[1-(4-methylbenzoyl)piperidin-4-yl]phenyl}-1-(pyridazin-3-yl)pyrrolidine-3-carboxamide] are within 1.5-fold of each other in IC50: 8.12 nM for the first, 9.58 nM for the second.

`CC[C@H](C(=O)N1CCC(c2ccc(NC(=O)[C@H]3CCN(c4cccnn4)C3)cc2)CC1)c1ccccc1` [Example 632, (3S)-N-(4-{1-[(2S)-2-phenylbutanoyl]piperidin-4-yl}phenyl)-1-(pyridazin-3-yl)pyrrolidine-3-carboxamide] and `CO[C@H](C(=O)N1CCC(c2ccc(NC(=O)[C@H]3CCN(c4cccnn4)C3)cc2)CC1)c1ccccc1` [Example 633, (3S)-N-(4-{1-[(2S)-2-methoxy-2-phenylacetyl]piperidin-4-yl}phenyl)-1-(pyridazin-3-yl)pyrrolidine-3-carboxamide] are within 1.5-fold of each other in IC50: 8.81 nM for the first, 8.95 nM for the second.

First: CO[C@@H](C(=O)N1CCC(c2ccc(NC(=O)[C@H]3CCN(c4cccnn4)C3)cc2)CC1)c1ccccc1 [Example 634, (3S)-N-(4-{1-[(2R)-2-methoxy-2-phenylacetyl]piperidin-4-yl}phenyl)-1-(pyridazin-3-yl)pyrrolidine-3-carboxamide]
Second: O=C(Nc1ccc(C2CCN(C(=O)c3ccccc3F)CC2)cc1)[C@H]1CCN(c2cccnn2)C1 [Example 637, (3S)-N-{4-[1-(2-fluorobenzoyl)piperidin-4-yl]phenyl}-1-(pyridazin-3-yl)pyrrolidine-3-carboxamide]
The IC50 of the first is 7.4-fold higher: 9.22 nM for the first, 1.24 nM for the second. The second is the more potent here.

First: CCOCC(=O)N1CCC(c2ccc(NC(=O)[C@H]3CCN(c4cccnn4)C3)cc2)CC1 [Example 635, (3S)-N-{4-[1-(ethoxyacetyl)piperidin-4-yl]phenyl}-1-(pyridazin-3-yl)pyrrolidine-3-carboxamide]
Second: Cc1ccc(OCC(=O)N2CCC(c3ccc(NC(=O)[C@H]4CCN(c5cccnn5)C4)cc3)CC2)cc1 [Example 636, (3S)-N-(4-{1-[(4-methylphenoxy)acetyl]piperidin-4-yl}phenyl)-1-(pyridazin-3-yl)pyrrolidine-3-carboxamide]
The IC50 of the first is 2-fold lower: 41.6 nM for the first, 82.8 nM for the second.

Going from `O=C(Nc1ccc(C2CCN(C(=O)c3cccc4ccccc34)CC2)cc1)[C@H]1CCN(c2cccnn2)C1` [Example 639, (3S)-N-{4-[1-(naphthalen-1-ylcarbonyl)piperidin-4-yl]phenyl}-1-(pyridazin-3-yl)pyrrolidine-3-carboxamide] to `O=C(Nc1ccc(C2CCN(C(=O)Cc3cccc4ccccc34)CC2)cc1)[C@H]1CCN(c2cccnn2)C1` [Example 641, (3S)-N-{4-[1-(naphthalen-1-ylacetyl)piperidin-4-yl]phenyl}-1-(pyridazin-3-yl)pyrrolidine-3-carboxamide], the IC50 rises from 8.16 nM to 72.6 nM (8.9-fold). The first is the more potent here.

Molecule `O=C(Nc1ccc(C2CCN(C(=O)Cc3c(Cl)cccc3Cl)CC2)cc1)[C@H]1CCN(c2cccnn2)C1` [Example 640, (3S)-N-(4-{1-[(2,6-dichlorophenyl)acetyl]piperidin-4-yl}phenyl)-1-(pyridazin-3-yl)pyrrolidine-3-carboxamide] has an IC50 of 2.92 nM.
